{"source": "patent US20250368618A1", "about": "“BENZOHETEROCYCLIC SUBSTITUTED TETRAHYDROISOQUINOLINE COMPOUND SALT FORM AND PREPARATION METHOD THEREFOR” (SHANGHAI JEYOU PHARMACEUTICAL CO., LTD., priority 2022, published 2025)", "key": {"Sprague-Dawley rats [1]": {"tested_on": "Sprague-Dawley rats", "assay": "Effect of multiple administrations on serum phosphorus concentration in rats (serum phosphorus, 24-h urinary phosphorus and sodium, fecal form)", "assay_type": "in vivo, rat", "conditions": "for 24-h nP, course: after 15 days; for serum phosphorus concentration: intragastric twice a day", "description": "The compound represented by formula (I) was evaluated by measuring the serum phosphorus concentration, concentrations of urinary phosphorus and urinary sodium, and fecal form in rats. Six-week-old Sprague-Dawley rats were purchased from Beijing Vital River Laboratory Animal Technology Co., Ltd. Two rats in each cage were placed in the SPF-grade animal room, and the rats were acclimatized for about one week. Throughout the study, the animals were given ad libitum access to feed and water, and the light cycle was 12 h of light and 12 h of darkness. Animal groups: vehicle group, n=5; Tenapanor 0.05 mg/kg, n=5; compound represented by formula (I) 0.01 mg/kg, n=5; compound represented by formula (I) 0.05 mg/kg, n=5; compound represented by formula (I) 0.5 mg/kg, n=5; and compound represented by formula (I) 1.0 mg/kg, n=5.\nAfter the start of the experiment, the feeding rhythm of the rats was adjusted to diurnal feeding in a manner of overnight fasting for 16 h and restoring feed for 8 h during the day. After the start of administration, the test compound or vehicle (0.5% Tween 80+99.5% distilled water) was administered intragastrically twice a day during the feeding period, with an interval of 4 h, for 14 consecutive days. The body weight of animals and food consumption were measured daily. The serum phosphorus concentration (including baseline values before the administration), 24-hour urinary phosphorus excretion amount, and 24-hour urinary sodium excretion amount were measured 1-2 times a week, and fecal form in the collection funnel was scored (fecal form was assessed by two independent observations). Fecal form scoring criteria: 1. normal pellets; 2. slightly soft feces (pellets adhered to the side wall of the collector due to moisture); 3. soft feces (loss of normal shape of the pellets); 4. loose and amorphous (complete loss of shape, accompanied by a blot pattern); and 5. diarrhea (watery feces). Fecal form score (FFS) in rats was determined by averaging two independent observation scores for all rats in the same group (n=5); and the mean value for the vehicle group was 1.\nAfter being left to stand at room temperature for 2 h, the blood was centrifuged at 4° C. at 4500 g for 10 min; the urine was centrifuged at 4° C. at 3220 g for 5 min; and the serum phosphorus concentration and urinary phosphorus concentration (phosphomolybdic acid ultraviolet endpoint colorimetric method), as well as urinary sodium concentration (indirect ion electrode method) were measured.\n(§1) The results were expressed as mean±standard error (Means±SEM), n=5 animals/group. The urinary phosphorus excretion amount (or urinary sodium excretion amount) in the rats was normalized and corrected against the respective dietary phosphorus (or sodium) intake. The formula was as follows: normalized correction value of urinary phosphorus excretion amount (expressed as nP)=urinary phosphorus excretion amount+dietary phosphorus intake; normalized correction value of urinary sodium excretion amount (expressed as nNa)=urinary sodium excretion amount+dietary sodium intake; two-way analysis of variance was adopted; and fecal form score was verified by the non-parametric test. *, p<0.05; ** p<0.01; *** p<0.001; ****, p<0.0001."}, "Sprague-Dawley rats [2]": {"tested_on": "Sprague-Dawley rats", "assay": "Inhibition of phosphate and sodium absorption in intestinal tract of rats after single administration (urinary phosphorus, urinary sodium, fecal form)", "assay_type": "in vivo, rat", "conditions": "normal rats", "description": "The compound represented by formula (I) was evaluated by measuring the concentrations of urinary phosphorus and urinary sodium, as well as fecal form.\nSix-week-old Sprague-Dawley rats were purchased from Beijing Vital River Laboratory Animal Technology Co., Ltd. Two rats in each cage were placed in the SPF-grade animal room, and the rats were acclimatized for about one week. Throughout the study, the animals were given ad libitum access to feed and water, and the light cycle was 12 h of light and 12 h of darkness. Animal groups: vehicle group, n=5; tenapanor 0.3 mg/kg group, n=5; compound represented by formula (I) 0.03 mg/kg group, n=5; compound represented by formula (I) 0.1 mg/kg group, n=5; compound represented by formula (I) 0.3 mg/kg group, n=5; and compound represented by formula (I) 1.0 mg/kg group, n=5.\nOn the day of the experiment, the test compound or vehicle (0.5% Tween 80+99.5% distilled water) was administered intragastrically to the animals after 8 h of fasting. Then, the animals were transferred into metabolism cages for single-cage feeding, and the feed was restored. Sixteen hours after administration, urine samples were collected, food consumption was recorded, and fecal form in the collection funnel was evaluated by two independent observations. Fecal form scoring criteria: 1. normal pellets; 2. slightly soft feces (pellets adhered to the side wall of the collector due to moisture); 3. soft feces (loss of normal shape of the pellets); 4. loose and amorphous (complete loss of shape, accompanied by a blot pattern); and 5. diarrhea (watery feces). Fecal form score (FFS) in rats was determined by averaging two independent observation scores for all rats in the same group (n=5); and the mean value for the vehicle group was 1.\nThe urine was centrifuged at 4° C. at 3220 g for 5 min, and the urinary phosphorus concentration (phosphomolybdic acid ultraviolet endpoint colorimetric method) and urinary sodium concentration (ion selective electrode method) were measured.\nas §1, with “error (Means±SEM).” for “error (Means±SEM), n=5 animals/group.”, “intake; one-way” for “intake; two-way”, “p<0.05; **,” for “p<0.05; **”, “p<0.01; ***,” for “p<0.01; ***”"}}, "data": [{"smiles": "CN1Cc2c(Cl)cc(Cl)cc2[C@H](c2ccc3cn(CCOCCOCCNC(=O)NCCCCNC(=O)NCCOCCOCCn4cc5ccc([C@@H]6CN(C)Cc7c(Cl)cc(Cl)cc76)cc5n4)nc3c2)C1", "note": "[compound represented by formula (I)]", "values": [{"measurement": "24-h nP", "setting": "Sprague-Dawley rats [1]; after 1 day of treatment, 1.0 mg/kg, vs vehicle", "value": "significantly reduced"}, {"measurement": "24-h nP (urinary phosphorus excretion amount normalized to dietary phosphorus intake)", "setting": "Sprague-Dawley rats [1]; after 1 day of treatment, 0.01, 0.05, 0.5 and 1.0 mg/kg, vs vehicle", "value": "decreasing trend"}, {"measurement": "24-h nNa (urinary sodium excretion amount normalized to dietary sodium intake)", "setting": "Sprague-Dawley rats [1]; after 1 day of treatment, 0.01, 0.05, 0.5 and 1.0 mg/kg, vs vehicle control", "value": "significantly reduced"}, {"measurement": "24-h nP, dose dependence", "setting": "Sprague-Dawley rats [1]; after 1 day of treatment, 0.01-1.0 mg/kg", "value": "The higher the dose, the lower the nP"}, {"measurement": "fecal form score", "setting": "Sprague-Dawley rats [1]; after 1 day of treatment, 0.05, 0.5 and 1.0 mg/kg, vs vehicle control", "value": "increased significantly"}, {"measurement": "24-h nNa, course", "setting": "Sprague-Dawley rats [1]; after 10 days of treatment, 0.01 mg/kg and 0.05 mg/kg", "value": "rising trend"}, {"measurement": "24-h nP", "setting": "Sprague-Dawley rats [1]; after 10 days of treatment, 0.01, 0.05, 0.5 and 1.0 mg/kg, vs vehicle", "value": "significantly reduced"}, {"measurement": "24-h nP, course", "setting": "Sprague-Dawley rats [1]", "value": "tended to be stable"}, {"measurement": "24-h nP, course", "setting": "Sprague-Dawley rats [1]; low-dose group 0.01 mg/kg", "value": "rising trend"}, {"measurement": "loose feces, severity", "setting": "Sprague-Dawley rats [1]; high-dose groups 0.5 mg/kg and 1.0 mg/kg", "value": "more severe loose feces"}, {"measurement": "frequency of loose feces observed", "setting": "Sprague-Dawley rats [1]; high-dose groups 0.5 mg/kg and 1.0 mg/kg, as the administration continued", "value": "decreased"}, {"measurement": "serum phosphorus concentration", "setting": "Sprague-Dawley rats [1]; after 4 days of treatment, 0.5 mg/kg or 1.0 mg/kg, vs vehicle control", "value": "significantly reduced"}, {"measurement": "serum phosphorus concentration", "setting": "Sprague-Dawley rats [1]; after 10 days of treatment, 0.01, 0.05, 0.5 and 1.0 mg/kg, vs vehicle control", "value": "significantly reduced"}, {"measurement": "loose feces, occurrence", "setting": "Sprague-Dawley rats [1]; low dose 0.01 mg/kg", "value": "No rats had loose feces"}, {"measurement": "serum phosphorus concentration, course", "setting": "Sprague-Dawley rats [1]; twice a day, after 10 days, groups other than the highest dose 1.0 mg/kg", "value": "tended to be stable"}, {"measurement": "urinary phosphorus excretion amount (nP)", "setting": "Sprague-Dawley rats [2]; single intragastric administration, 0.03, 0.1, 0.3, 1.0 mg/kg, urine 16 h after administration, dose dependence", "value": "dose-effect relationship"}, {"measurement": "water content in the feces (fecal form score)", "setting": "Sprague-Dawley rats [2]; single intragastric administration, 0.03-1.0 mg/kg, 16 h", "value": "tendency to increase with the increase in the dose"}, {"measurement": "urinary phosphorus excretion amount (nP)", "setting": "Sprague-Dawley rats [2]; single intragastric administration, doses of 0.3 mg/kg and 1.0 mg/kg, urine 16 h after administration", "value": "significantly reduce"}, {"measurement": "urinary phosphorus excretion amount (nP), comparison with Tenapanor", "setting": "Sprague-Dawley rats [2]; single intragastric administration, same dose 0.3 mg/kg of both", "value": "better than Tenapanor"}, {"measurement": "urinary sodium excretion amount (nNa)", "setting": "Sprague-Dawley rats [2]; single intragastric administration, urine 16 h after administration", "value": "significantly reduce"}]}]}
